Results published in patent US20130289019A1, “METHODS OF TREATING BEHAVIORIAL AND/OR MENTAL DISORDERS” (AMAZING GRACE, INC., priority 2012, published 2013).
“Also recorded” adds a separate entry of the source.

Tests used:
Assay type in all cases: in vivo, rat
[1] = test system: ACh outflow in the NAcShell and swimming of rats; experiment: local fluoxetine infusion in NAcShell: ACh outflow and swim test
[2] = test system: rats (basal extracellular ACh in the NAcShell, swim test); experiment: chronic systemic fluoxetine: basal extracellular ACh in NAcShell and swim test
[3] = test system: rats (NAc infusion); experiment: swim test scores during bilateral fluoxetine infusion in the NAc
[4] = test system: rats (NAcShell infusion); experiment: locomotor activity in the open field after bilateral fluoxetine infusion into NAcShell
[5] = 0.2 mM bilateral in NAc, fluoxetine on Day 2 (Ringer Day 3)
[6] = 0.2 mM bilateral in NAc, fluoxetine on Day 3 (Ringer Day 2)
[7] = 0.2 mM bilateral in NAc, on Day 2 or Day 3 (combined)
[8] = 0.5 mM bilateral in NAc, fluoxetine on Day 2 (Ringer Day 3)
[9] = 0.5 mM bilateral in NAc, fluoxetine on Day 3 (Ringer Day 2)
[10] = 0.5 mM bilateral in NAc, on Day 2 or Day 3 (combined)
[11] = 0.75 mM bilateral in NAc, fluoxetine on Day 2 (Ringer Day 3)
[12] = 0.75 mM bilateral in NAc, fluoxetine on Day 3 (Ringer Day 2)
[13] = 0.75 mM bilateral in NAc, on Day 2 or Day 3 (combined)

CNCCC(Oc1ccc(C(F)(F)F)cc1)c1ccccc1 (centres unmarked) [Fluoxetine]
swimming time greater than during Ringer ([1]; 1.0 mM local infusion in NAcShell, n=8): 18.9%
swimming time during fluoxetine ([1]; 1.0 mM local infusion in NAcShell, n=8, Ringer 277±44 sec): 329 ± 45 s
ACh outflow in the NAcShell, effect in words ([1]; during and following 1.0 mM fluoxetine infusion, vs Ringer infusion or pretest): substantially lower; also recorded: decreases the extracellular level of ACh
immobility in the swim test, effect in words ([1]; unilateral infusion into NAcShell): decreases immobility
swimming plus climbing scores (total escape efforts) ([2]; following chronic fluoxetine treatment, saline 42±11): 55±7
basal ACh level in the NAcShell, effect in words ([2]; low dose subcutaneously, daily over 14 days, rats in the forced swimming test): normalizes the chronic elevation in basal ACh level
Climbing score, FLU [3, 5]: 39 ± 12
Immobility score, FLU [3, 5]: 66 ± 30
Swimming score, FLU [3, 5]: 15 ± 17
Climbing score, FLU [3, 6]: 60 ± 15
Immobility score, FLU [3, 6]: 45 ± 13
Swimming score, FLU [3, 6]: 14 ± 8
Climbing score, FLU [3, 7]: 52 ± 10
Immobility score, FLU [3, 7]: 53 ± 12
Swimming score, FLU [3, 7]: 14 ± 7
Climbing score, FLU [3, 8]: 45 ± 12
Immobility score, FLU [3, 8]: 68 ± 9
Swimming score, FLU [3, 8]: 6 ± 3
Climbing score, FLU [3, 9]: 74 ± 10
Immobility score, FLU [3, 9]: 39 ± 10
Swimming score, FLU [3, 9]: 7 ± 6
Climbing score, FLU [3, 10]: 61 ± 9
Immobility score, FLU [3, 10]: 51 ± 8
Swimming score, FLU [3, 10]: 7 ± 3
Climbing score, FLU [3, 11]: 44 ± 10
Immobility score, FLU [3, 11]: 62 ± 11
Swimming score, FLU [3, 11]: 14 ± 7
Climbing score, FLU [3, 12]: 57 ± 9
Immobility score, FLU [3, 12]: 53 ± 7
Swimming score, FLU [3, 12]: 10 ± 4
Climbing score, FLU [3, 13]: 57 ± 9
Immobility score, FLU [3, 13]: 53 ± 7
Swimming score, FLU [3, 13]: 10 ± 4
immobility in the swim test, effect in words ([3]; bilateral infusion into NAcShell, dose-dependently): decreases immobility
locomotor activity in the open field, in words [4]: does not affect locomotor activity
